EC50 data for one compound are collected here from ChEMBL document CHEMBL1144867, “Antiviral amphipathic oligo- and polyribonucleotides: analogue development and biological studies” (J Med Chem, 2003).

The test deals with MRC5. In words: Inhibitory activity of compound against human cytomegalovirus (HCMV) in MRC-5 cells. Format: functional, cell-based.

On to `Nc1nc2c(ncn2COC(CO)CO)c(=O)[nH]1` [GANCICLOVIR], for which the EC50 came to 9.4 µM.
